Test results from patent publication US20240041042A1, “1-(PYRIDYL)-5-AZINYLPYRAZOLE DERIVATIVES, AND THEIR USE FOR CONTROL OF UNDESIRED PLANT GROWTH” (Bayer Aktiengesellschaft, priority 2020, published 2024).
Where two headings read alike, the source gives them in different places.

How the values were obtained:
Format in all cases: in vivo
[1] = system: Pharbitis purpurea (PHBPU); assay: Post-emergence herbicidal action against PHBPU
How it was run: (§1)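 Rates were 320 g/ha or below, applied as aqueous WP/EC spray with 0.5% additive (600 l/ha) onto one-leaf-stage plants. About 3 weeks later in the greenhouse, damage was scored visually against untreated plants on a 0–100% scale, where 100% means plants died.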

Viola tricolor (VIOTR) [2] = assay: Post-emergence herbicidal action against VIOTR
How it was run: as §1

[3] = system: Alopecurus myosuroides (ALOMY); assay: Pre-emergence herbicidal action against ALOMY; settings: scored visually after about 3 weeks, 100% = plants have died
How it was run: (§2)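 Seeds sown in pots and covered with soil; WP or EC formulations sprayed onto the soil surface at 600 l/ha water with 0.5% additive, at 320 g/ha or lower. Greenhouse growth for about 3 weeks, then visual scoring as % effect against untreated controls (100% = plants dead).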

[4] = system: Pharbitis purpurea (PHBPU); assay: Pre-emergence herbicidal action against PHBPU; settings: dosage 320 g/ha
How it was run: as §2

[5] = system: Polygonum convolvulus (POLCO); assay: Post-emergence herbicidal action against POLCO; settings: dosage 320 g/ha
How it was run: as §1

Setaria viridis (SETVI) [6] = assay: Pre-emergence herbicidal action against SETVI
How it was run: as §2

Avena fatua (AVEFA) [7] = assay: Pre-emergence herbicidal action against AVEFA; settings: 320 g/ha, visual scoring after about 3 weeks vs untreated controls
How it was run: as §2

[8] = system: Matricaria inodora (MATIN); assay: Pre-emergence herbicidal action against MATIN
How it was run: as §2

Oryza sativa (ORYSA) [9] = settings: crop plant compatibility
How it was run: (§3)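 Effects were read visually as % versus untreated controls (0% = no effect, 100% = death) about 3 weeks post-treatment. Application was a post-emergence spray at the one-leaf stage of WP/EC formulations with 0.5% additive at 600 l/ha. Different dosages are denoted a, b and c.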

[10] = system: Alopecurus myosuroides (ALOMY); assay: Post-emergence herbicidal action against ALOMY; settings: visual rating about 3 weeks after treatment vs untreated controls (100% = plants have died, 0% = like control plants)
How it was run: as §1

Lolium rigidum (LOLRI) [11] = assay: Post-emergence herbicidal action against LOLRI
How it was run: as §1

[12] = system: Amaranthus retroflexus (AMARE); assay: Pre-emergence herbicidal action against AMARE; settings: visual scoring after about 3 weeks vs untreated controls
How it was run: as §2

[13] = system: Verconica persica (VERPE); assay: Post-emergence herbicidal action against VERPE
How it was run: as §1

Viola tricolor (VIOTR) [14] = assay: Pre-emergence herbicidal action against VIOTR
How it was run: as §2

[15] = system: Abutilon theophrasti (ABUTH); assay: Post-emergence herbicidal action against ABUTH; settings: visual rating about 3 weeks after treatment vs untreated controls (100% = plants have died, 0% = like control plants)
How it was run: as §1

Avena fatua (AVEFA) [16] = assay: Post-emergence herbicidal action against AVEFA; settings: visual rating about 3 weeks after treatment
How it was run: as §1

[17] = system: Amaranthus retroflexus (AMARE); assay: Post-emergence herbicidal action against AMARE
How it was run: as §1

[18] = system: Polygonum convolvulus (POLCO); assay: Pre-emergence herbicidal action against POLCO
How it was run: as §2

Oryza sativa (ORYSA) [19] = settings: pre-emergence, 80 g/ha, crop plant compatibility, in comparison to untreated controls
How it was run: (§4)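 Crop injury rated visually in percent against untreated plants roughly 3 weeks after treatment (0% no effect, 100% plants dead). Compounds, as WP or EC with 0.5% additive in 600 l/ha water, were applied to the covering soil right after sowing; greenhouse growth. Suffixes a, b, c denote different dosages.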

Lolium rigidum (LOLRI) [20] = assay: Pre-emergence herbicidal action against LOLRI
How it was run: as §2

Setaria viridis (SETVI) [21] = assay: Post-emergence herbicidal action against SETVI
How it was run: as §1

[22] = system: Echinochloa crus-galli (ECHCG); assay: Post-emergence herbicidal action against ECHCG
How it was run: as §1

[23] = system: Echinochloa crus-galli (ECHCG); assay: Pre-emergence herbicidal action against ECHCG
How it was run: as §2

[24] = system: Verconica persica (VERPE); assay: Pre-emergence herbicidal action against VERPE
How it was run: as §2

[25] = system: Matricaria inodora (MATIN); assay: Post-emergence herbicidal action against MATIN
How it was run: as §1

Zea mays (ZEAMX) [26] = settings: for Post-emergence action against ZEAMX in %: crop plant compatibility, 80 g/ha, effect vs untreated controls
How it was run: as §3

Zea mays (ZEAMX) [27] = settings: pre-emergence, 80 g/ha, crop plant compatibility, in comparison to untreated controls
How it was run: as §4

[28] = 80 g/ha, effect in comparison to untreated controls
[29] = 320 g/ha, visual rating about 3 weeks after treatment

SMILES | Post-emergence action against PHBPU in % ([1]; dosage 320 g/ha) [%] | Post-emergence action against VIOTR in % (Viola tricolor (VIOTR) [2]; 320 g/ha) [%] | Pre-emergence action against ALOMY ([3]; 80 g/ha) [%] | Pre-emergence action against ALOMY ([3]; 320 g/ha) [%] | Pre-emergence action against PHBPU in % [4] [%] | Pre-emergence action against SETVI in % (Setaria viridis (SETVI) [6]; dosage 320 g/ha) [%] | Pre-emergence action against AVEFA in % (Avena fatua (AVEFA) [7]) [%] | Pre-emergence action against MATIN in % ([8]; dosage 320 g/ha) [%] | Post-emergence action against ORYSA in % (Oryza sativa (ORYSA) [9]; [28]) [%] | Post-emergence action against ALOMY in % ([10]; 80 g/ha) [%] | Post-emergence action against ALOMY in % ([10]; 320 g/ha) [%] | Post-emergence action against LOLRI in % (Lolium rigidum (LOLRI) [11]; dosage 80 g/ha) [%] | Post-emergence action against LOLRI in % (Lolium rigidum (LOLRI) [11]; dosage 320 g/ha) [%] | Pre-emergence action against AMARE in % ([12]; 80 g/ha) [%] | Pre-emergence action against AMARE in % ([12]; 320 g/ha) [%] | Post-emergence action against VERPE in % ([13]; dosage 80 g/ha) [%] | Pre-emergence action against VIOTR in % (Viola tricolor (VIOTR) [14]; 320 g/ha, Viola tricolor) [%] | Pre-emergence action against POLCO in % ([18]; dosage 320 g/ha) [%] | Pre-emergence action against ORYSA in % (Oryza sativa (ORYSA) [19]) [%] | Pre-emergence action against LOLRI in % (Lolium rigidum (LOLRI) [20]; dosage 320 g/ha) [%] | also measured
CCOC(=O)[C@@H](C)Oc1nn(-c2nc(F)ccc2F)c(-c2ccc(F)nc2)c1Br [Example I-336] | 100 | 80 | 80 | 100 | 80 | 100 | 90 | 90 | 20 | 90 | 90 | 80 | 80 | 90 | 100 | 80 | 100 | 90 | 20 | 100 | Post-emergence action against PHBPU in % ([1]; dosage 80 g/ha): 90%; Post-emergence action against POLCO in % [5]: 80%; Pre-emergence action against MATIN in % ([8]; dosage 80 g/ha): 80%; Post-emergence action against VERPE in % ([13]; 320 g/ha, VERPE): 90%; Pre-emergence action against VIOTR in % (Viola tricolor (VIOTR) [14]; dosage 80 g/ha): 90%; Post-emergence action against ABUTH in % ([15]; 320 g/ha): 80%; Post-emergence action against AVEFA in % (Avena fatua (AVEFA) [16]; 80 g/ha): 80%; Post-emergence action against AVEFA in % (Avena fatua (AVEFA) [16]; 320 g/ha): 90%; Post-emergence action against AMARE in % [17, 29]: 80%; Pre-emergence action against POLCO in % ([18]; dosage 80 g/ha): 80%; Pre-emergence action against LOLRI in % (Lolium rigidum (LOLRI) [20]; dosage 80 g/ha): 80%; Post-emergence action against SETVI in % (Setaria viridis (SETVI) [21]; dosage 320 g/ha): 80%; Post-emergence action against ECHCG in % ([22]; dosage 80 g/ha): 80%; Post-emergence action against ECHCG in % ([22]; dosage 320 g/ha): 80%; Pre-emergence action against ECHCG in % ([23]; dosage 80 g/ha): 80%; Pre-emergence action against ECHCG in % ([23]; dosage 320 g/ha): 100%; Pre-emergence action against VERPE in % ([24]; dosage 80 g/ha): 80%; Pre-emergence action against VERPE in % ([24]; dosage 320 g/ha): 90%
COCCOC(=O)[C@@H](C)Oc1nn(-c2ncccc2F)c(-c2ccc(F)nc2)c1Br [Example I-35] | – | – | 90 | 100 | 90 | 100 | 100 | 100 | 0 | 90 | – | 90 | – | 100 | 100 | 100 | 100 | 90 | 20 | 100 | Post-emergence action against VIOTR in % (Viola tricolor (VIOTR) [2]; 80 g/ha): 90%; Pre-emergence action against SETVI in % (Setaria viridis (SETVI) [6]; dosage 80 g/ha): 100%; Post-emergence action against MATIN in % ([25]; dosage 80 g/ha): 90%; Post-emergence action against ORYSA in % (Oryza sativa (ORYSA) [9]; 20 g/ha, effect vs untreated controls): 0%; Post-emergence action against ZEAMX in % (crop plant compatibility) (Zea mays (ZEAMX) [26]; 20 g/ha, ZEAMX, effect in comparison to untreated controls): 10%; Post-emergence action against ZEAMX in % (Zea mays (ZEAMX) [26]): 10%; Pre-emergence action against VIOTR in % (Viola tricolor (VIOTR) [14]; dosage 80 g/ha): 100%; Post-emergence action against ABUTH in % ([15]; 80 g/ha): 90%; Post-emergence action against AVEFA in % (Avena fatua (AVEFA) [16]; 80 g/ha): 100%; Post-emergence action against AMARE in % ([17]; 80 g/ha, visual rating about 3 weeks after treatment vs untreated controls (100% = plants have died, 0% = like control plants)): 100%; Pre-emergence action against LOLRI in % (Lolium rigidum (LOLRI) [20]; dosage 80 g/ha): 90%; Post-emergence action against SETVI in % (Setaria viridis (SETVI) [21]; dosage 80 g/ha): 100%; Post-emergence action against ECHCG in % ([22]; dosage 80 g/ha): 90%; Pre-emergence action against ECHCG in % ([23]; dosage 80 g/ha): 90%; Pre-emergence action against ECHCG in % ([23]; dosage 320 g/ha): 100%; Pre-emergence action against VERPE in % ([24]; dosage 320 g/ha): 100%
COCCOC(=O)COc1nn(-c2ncccc2C(F)(F)F)c(-c2ccc(F)nc2)c1Cl [Example I-362] | 80 | 80 | – | 100 | – | 80 | – | – | 10 | – | 90 | – | 80 | – | 90 | – | 100 | 80 | 20 | 100 | Post-emergence action against VIOTR in % (Viola tricolor (VIOTR) [2]; 80 g/ha): 80%; Post-emergence action against ZEAMX in % (Zea mays (ZEAMX) [26]): 0%; Pre-emergence action against ZEAMX in % (Zea mays (ZEAMX) [27]): 0%; Post-emergence action against SETVI in % (Setaria viridis (SETVI) [21]; dosage 320 g/ha): 80%; Post-emergence action against ECHCG in % ([22]; dosage 320 g/ha): 80%
COC(=O)COc1nn(-c2nc(F)ccc2F)c(-c2ccc(F)nc2)c1Br [Example I-369] | 90 | 80 | 80 | 100 | 90 | 90 | 80 | 90 | 20 | 80 | 100 | 80 | 90 | 90 | 90 | 80 | 100 | 90 | 20 | 90 | Post-emergence action against PHBPU in % ([1]; dosage 80 g/ha): 80%; Post-emergence action against VIOTR in % (Viola tricolor (VIOTR) [2]; 80 g/ha): 80%; Post-emergence action against POLCO in % [5]: 80%; Post-emergence action against MATIN in % ([25]; dosage 320 g/ha): 80%; Pre-emergence action against MATIN in % ([8]; dosage 80 g/ha): 80%; Post-emergence action against ZEAMX in % (Zea mays (ZEAMX) [26]): 10%; Post-emergence action against VERPE in % ([13]; 320 g/ha, VERPE): 80%; Pre-emergence action against VIOTR in % (Viola tricolor (VIOTR) [14]; dosage 80 g/ha): 80%; Post-emergence action against ABUTH in % ([15]; 320 g/ha): 80%; Post-emergence action against AVEFA in % (Avena fatua (AVEFA) [16]; 320 g/ha): 80%; Post-emergence action against AMARE in % [17, 29]: 80%; Post-emergence action against ECHCG in % ([22]; dosage 80 g/ha): 80%; Post-emergence action against ECHCG in % ([22]; dosage 320 g/ha): 80%; Pre-emergence action against ECHCG in % ([23]; dosage 320 g/ha): 100%; Pre-emergence action against VERPE in % ([24]; dosage 80 g/ha): 90%; Pre-emergence action against VERPE in % ([24]; dosage 320 g/ha): 90%
